Usually EC50 stands for the concentration at which the effect is half-maximal. A higher EC50 goes with a need for much substance.

The record followed here is article PMC10206162 (Nature Communications, 2023).

Where two headings read alike, the source gives them in different places. Where no end group is shown, it is not given here.

The target of one test is human NaV1.9 (Homo sapiens, UniProt Q9UI33). It is filed as cell-based.
The target of another test is human NaV1.7 (Homo sapiens, UniProt Q15858). Put plainly: cell-based.
For the next test, the target named is human NaV1.6 (Homo sapiens, UniProt Q9UQD0). Put plainly: cell-based.
The target of the next test is mouse NaV1.7 (Mus musculus, UniProt Q62205). Put plainly: cell-based. Type of test: cell-based. The procedure:
HEK293 cells stably expressing the α-subunit of mouse Nav1.7, human NaV1.6 or Nav1.7 plus the β1 subunit (SB Drug Discovery, Glasgow, United Kingdom) and Chinese Hamster Ovary (CHO) cells stably expressing human NaV1.8 plus the β3 subunit in a tetracycline-inducible system (ChanTest, Cleveland, OH, United States), were cultured were maintained on MEM supplemented with 10% heat-inactivated FBS, 2 mM L-glutamine in an incubator at 37 °C with 5% CO2 and passaged every 3–4 days (at 70–80% confluency) using TrypLE Express (Thermo Fisher Scientific).
Whole-cell patch-clamp experiments were performed using a QPatch16X automated electrophysiology platform (Sophion Bioscience, Ballerup, Denmark). The extracellular solution (ECS) contained 145 mM NaCl (replaced with 70 mM choline chloride for NaV1.7), 4 mM KCl, 2 mM CaCl2, 1 mM MgCl2, 10 mM HEPES, and 10 mM glucose (pH 7.4; osmolarity, 305 mOsm). The intracellular solution (ICS) contained 140 mM CsF, 1 mM/5 mM EGTA/CsOH, 10 mM HEPES, and 10 mM NaCl (pH 7.3) with CsOH (osmolarity, 320 mOsm). Peptides were diluted in ECS with 0.1% BSA.
Concentration-response experiments were performed using a holding potential of −90 mV and a 50-ms pulse to −20 mV ( + 10 mV for NaV1.8) every 20 s (0.05 Hz). […] Conductance-voltage curves were obtained by calculating the conductance (G) at each voltage (V) using the equation G = I/(V – Vrev), where Vrev is the reversal potential, and they were fitted with the following single or double Boltzmann equations: I = Imax/{1 + exp[(V50 − Vm)/k]} or I = {Imax(a)/[1+exp({V50 (a) – Vm}/k(a))]} + {Imax(b)/[1 + exp({V50(b) – Vm}/k(b))]}, where Imax is the maximal current after normalisation to the driving force, V50 is the half-activation potential, Vm is the membrane potential, and k is the slope factor. For statistical comparison of G-V curves, a two-tailed unpaired t-test was used.

For another test, the target named is human NaV1.8 (Homo sapiens, UniProt Q9Y5Y9). Put plainly: cell-based. The following applies: EC50 (potency), hNaV1.8.

Sequence of mouse NaV1.7 (Q62205 whole entry): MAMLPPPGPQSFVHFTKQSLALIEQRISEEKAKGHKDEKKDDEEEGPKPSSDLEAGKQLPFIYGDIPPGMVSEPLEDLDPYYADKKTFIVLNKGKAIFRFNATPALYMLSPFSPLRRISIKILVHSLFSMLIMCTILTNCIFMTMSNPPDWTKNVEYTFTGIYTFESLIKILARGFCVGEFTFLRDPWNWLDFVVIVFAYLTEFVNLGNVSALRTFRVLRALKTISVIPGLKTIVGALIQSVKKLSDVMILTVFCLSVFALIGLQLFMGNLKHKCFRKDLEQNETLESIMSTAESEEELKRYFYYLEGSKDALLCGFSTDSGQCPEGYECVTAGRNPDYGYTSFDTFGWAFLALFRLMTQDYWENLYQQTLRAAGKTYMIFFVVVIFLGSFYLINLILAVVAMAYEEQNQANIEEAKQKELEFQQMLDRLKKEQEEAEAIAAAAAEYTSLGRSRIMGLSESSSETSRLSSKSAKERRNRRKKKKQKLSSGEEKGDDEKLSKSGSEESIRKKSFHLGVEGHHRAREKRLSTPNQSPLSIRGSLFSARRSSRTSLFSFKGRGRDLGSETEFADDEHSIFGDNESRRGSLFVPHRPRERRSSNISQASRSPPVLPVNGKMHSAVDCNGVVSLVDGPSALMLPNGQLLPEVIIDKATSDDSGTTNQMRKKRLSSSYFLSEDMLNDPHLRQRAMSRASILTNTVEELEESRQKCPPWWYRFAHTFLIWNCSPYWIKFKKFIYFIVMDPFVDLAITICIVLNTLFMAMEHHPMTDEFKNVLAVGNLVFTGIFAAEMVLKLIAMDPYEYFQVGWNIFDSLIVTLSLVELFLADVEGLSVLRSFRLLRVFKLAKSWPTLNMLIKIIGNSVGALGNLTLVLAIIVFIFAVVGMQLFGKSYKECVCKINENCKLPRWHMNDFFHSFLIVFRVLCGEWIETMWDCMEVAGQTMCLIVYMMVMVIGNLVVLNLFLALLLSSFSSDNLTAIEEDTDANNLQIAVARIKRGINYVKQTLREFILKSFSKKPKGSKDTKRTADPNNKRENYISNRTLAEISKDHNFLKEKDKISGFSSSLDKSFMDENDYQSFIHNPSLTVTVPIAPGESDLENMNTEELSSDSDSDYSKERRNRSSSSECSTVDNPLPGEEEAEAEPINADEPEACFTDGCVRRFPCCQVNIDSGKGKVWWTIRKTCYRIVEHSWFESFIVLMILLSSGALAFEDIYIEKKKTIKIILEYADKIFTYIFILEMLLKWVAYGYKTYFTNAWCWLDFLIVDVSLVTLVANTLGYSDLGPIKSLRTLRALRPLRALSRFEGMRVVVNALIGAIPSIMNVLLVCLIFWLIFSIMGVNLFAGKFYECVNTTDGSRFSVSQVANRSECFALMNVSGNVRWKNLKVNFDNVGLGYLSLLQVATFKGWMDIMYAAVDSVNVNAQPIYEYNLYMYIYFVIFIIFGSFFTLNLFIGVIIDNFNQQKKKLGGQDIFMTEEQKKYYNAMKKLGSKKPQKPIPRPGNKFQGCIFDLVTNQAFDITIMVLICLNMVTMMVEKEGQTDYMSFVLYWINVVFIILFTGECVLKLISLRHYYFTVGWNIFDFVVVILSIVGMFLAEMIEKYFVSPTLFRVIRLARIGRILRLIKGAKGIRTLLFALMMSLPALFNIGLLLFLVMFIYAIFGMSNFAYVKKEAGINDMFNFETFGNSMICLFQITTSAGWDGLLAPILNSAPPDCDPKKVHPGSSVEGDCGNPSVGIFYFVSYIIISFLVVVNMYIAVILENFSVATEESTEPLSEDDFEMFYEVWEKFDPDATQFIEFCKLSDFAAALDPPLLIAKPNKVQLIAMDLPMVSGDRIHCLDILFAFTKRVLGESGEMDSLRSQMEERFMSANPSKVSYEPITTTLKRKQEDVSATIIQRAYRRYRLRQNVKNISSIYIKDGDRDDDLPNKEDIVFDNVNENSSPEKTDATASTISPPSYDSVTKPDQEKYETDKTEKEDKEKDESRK
Sequence of mouse NaV1.7 (Q07699 19-218, further chain): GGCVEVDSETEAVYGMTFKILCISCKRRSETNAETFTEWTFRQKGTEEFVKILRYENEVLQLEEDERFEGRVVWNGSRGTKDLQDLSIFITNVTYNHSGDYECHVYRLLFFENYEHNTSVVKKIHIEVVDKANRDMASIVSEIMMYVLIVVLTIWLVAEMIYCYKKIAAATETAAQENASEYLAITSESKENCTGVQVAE
Sequence of human NaV1.7 (Q07699 19-218): as the sequence (Q07699 19-218, further chain) above
Sequence of human NaV1.7 (Q15858 whole entry): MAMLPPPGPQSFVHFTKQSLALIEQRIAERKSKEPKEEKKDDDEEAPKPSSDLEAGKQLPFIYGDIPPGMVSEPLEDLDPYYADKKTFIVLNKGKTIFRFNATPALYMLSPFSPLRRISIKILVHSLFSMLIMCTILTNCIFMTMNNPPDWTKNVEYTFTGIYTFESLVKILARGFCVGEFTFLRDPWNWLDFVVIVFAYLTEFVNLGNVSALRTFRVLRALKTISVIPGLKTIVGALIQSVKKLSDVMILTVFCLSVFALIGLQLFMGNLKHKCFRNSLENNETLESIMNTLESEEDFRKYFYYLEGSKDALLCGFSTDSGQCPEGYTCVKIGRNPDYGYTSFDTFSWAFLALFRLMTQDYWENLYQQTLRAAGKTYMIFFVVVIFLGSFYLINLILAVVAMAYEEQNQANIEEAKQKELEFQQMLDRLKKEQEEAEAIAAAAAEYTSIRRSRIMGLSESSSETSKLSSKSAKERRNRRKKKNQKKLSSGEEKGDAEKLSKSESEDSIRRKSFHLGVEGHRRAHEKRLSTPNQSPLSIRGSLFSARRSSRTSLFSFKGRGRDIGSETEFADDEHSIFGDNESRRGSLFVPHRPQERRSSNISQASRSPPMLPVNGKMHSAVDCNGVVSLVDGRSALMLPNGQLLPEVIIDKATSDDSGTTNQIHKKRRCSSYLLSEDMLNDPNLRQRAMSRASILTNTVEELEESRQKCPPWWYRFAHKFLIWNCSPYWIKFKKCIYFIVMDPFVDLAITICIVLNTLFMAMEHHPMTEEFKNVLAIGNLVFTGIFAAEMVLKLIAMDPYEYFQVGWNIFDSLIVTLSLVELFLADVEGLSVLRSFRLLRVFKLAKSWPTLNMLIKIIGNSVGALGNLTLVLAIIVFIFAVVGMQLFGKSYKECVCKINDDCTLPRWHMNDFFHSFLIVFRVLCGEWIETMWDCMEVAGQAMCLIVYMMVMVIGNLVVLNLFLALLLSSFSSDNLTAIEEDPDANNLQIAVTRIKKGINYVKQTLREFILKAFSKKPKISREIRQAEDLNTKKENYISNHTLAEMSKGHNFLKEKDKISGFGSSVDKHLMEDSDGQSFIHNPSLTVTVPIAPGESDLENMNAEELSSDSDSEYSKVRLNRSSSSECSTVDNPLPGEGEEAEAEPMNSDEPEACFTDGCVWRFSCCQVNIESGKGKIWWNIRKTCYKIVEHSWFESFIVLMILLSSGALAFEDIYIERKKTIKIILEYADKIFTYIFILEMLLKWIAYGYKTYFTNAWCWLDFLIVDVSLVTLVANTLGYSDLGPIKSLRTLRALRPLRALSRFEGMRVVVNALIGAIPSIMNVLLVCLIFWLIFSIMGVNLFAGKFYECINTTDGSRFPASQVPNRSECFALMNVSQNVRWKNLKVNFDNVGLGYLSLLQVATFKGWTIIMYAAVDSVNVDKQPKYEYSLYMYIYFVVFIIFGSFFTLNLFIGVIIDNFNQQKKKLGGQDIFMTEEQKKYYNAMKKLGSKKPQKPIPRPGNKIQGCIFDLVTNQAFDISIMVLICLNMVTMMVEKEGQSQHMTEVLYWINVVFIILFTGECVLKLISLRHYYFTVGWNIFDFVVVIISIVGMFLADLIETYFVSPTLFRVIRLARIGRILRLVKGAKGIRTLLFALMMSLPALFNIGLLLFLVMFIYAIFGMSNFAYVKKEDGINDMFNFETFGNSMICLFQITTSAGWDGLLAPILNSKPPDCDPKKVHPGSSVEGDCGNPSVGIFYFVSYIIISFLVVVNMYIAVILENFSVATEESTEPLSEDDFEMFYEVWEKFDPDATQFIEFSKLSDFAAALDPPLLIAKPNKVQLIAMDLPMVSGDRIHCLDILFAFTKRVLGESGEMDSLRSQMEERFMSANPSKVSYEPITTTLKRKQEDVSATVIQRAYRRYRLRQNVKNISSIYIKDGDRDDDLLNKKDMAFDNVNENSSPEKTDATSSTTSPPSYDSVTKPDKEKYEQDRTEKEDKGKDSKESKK

Take “FLPLLILGSLLMTPPVIQAIHDAQR-NH2 [Pc1a, poneratoxin]”: the “hNaV1.9 I50-ms, % of peak” value at human NaV1.9 (SEM) is on record as 58.6 ± 4.4%. Further, the “hNaV1.7 peak current amplitude, % of control” value on human NaV1.7 was 57.8 ± 4.9%. Further, the EC50 at human NaV1.7 (EC50 (potency), hNaV1.7, SEM) was 2300 ± 400 nM; at human NaV1.6 (SEM) it was 97 ± 10 nM; at mouse NaV1.7 it was 1160 nM; at mouse NaV1.7 (EC50 (potency), mNaV1.7, HEK293, hold −90 mV, pulse to −20 mV, I40-ms/Imax, mean ± SEM, SEM), 1800 ± 200 nM; at mouse NaV1.7 (EC50, 95% CI (profile likelihood), mNaV1.7 (I40ms), Supplementary Fig. 2f / 2i) it was 718 to 2680 nM; at human NaV1.8, greater than 10000 nM. The “hNaV1.7 sustained current (I40-ms), % of control peak” value on human NaV1.7 (SEM) was 12.2 ± 1.2%. For the same substance, at mouse NaV1.7 (3 µM peptide, step –90 to –20 mV, n = 4-5 cells, mean ± SEM, SEM), the “mNaV1.7 sustained current, % of control peak” value worked out at 8.8 ± 2.0%.

Regarding GLPLLALLMTLPFIQHAITN-NH2 [Mri1a], the “activity at hNaV1.9 (sustained current vs control)” value on human NaV1.9 was “inactive”. In addition, the “hNaV1.7 peak current amplitude, % of control” value on human NaV1.7 came out at 68.1 ± 10.6%. Also, the EC50 is greater than 10000 nM on human NaV1.7 (EC50 (potency), hNaV1.7); 5600 nM at human NaV1.7 (NaV1.7, best-fit EC50); 3240 nM at human NaV1.6. Also, at human NaV1.7 (SEM), the “hNaV1.7 sustained current (I40-ms), % of control peak” value was 3.4 ± 0.7%.
